The values below come from PubChem BioAssay AID330 (DTP/NCI, 2004).

“And” between values parts separate entries of the source, which are not always exact repeats. Identical values can stand only once. Toxic doses and inconclusive results are not listed.

The subject of this assay is P388 leukemia ip, CD2F1 mice, survival T/C. Briefly: NCI In Vivo Anticancer Drug Screen. Data for tumor model P388 Leukemia (intraperitoneal) in CD2F1 (CDF1) mice. As to conditions: endpoint: median survival time, higher = longer survival. The procedure, abridged:
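Mice carrying the transplanted tumor received test compound or vehicle. Survival was recorded in each group, and the value is the treated-group measurement divided by that of the vehicle-treated control group.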

Setting [1] is: dose: 60.0 mg/kg/injection, schedule: Q01DX005 (ip), vehicle: Klucel (hydroxypropylcellulose) (HPC).
The mark [2] stands for this setting: dose: 50.0 mg/kg/injection, schedule: Q01DX005 (ip), vehicle: Klucel (hydroxypropylcellulose) (HPC).
The mark [3] stands for this setting: dose: 100.0 mg/kg/injection, schedule: Q01DX005 (ip), vehicle: Klucel (hydroxypropylcellulose) (HPC).
Setting [4] is: dose: 200.0 mg/kg/injection, schedule: Q01DX005 (ip), vehicle: Klucel (hydroxypropylcellulose) (HPC).
Setting [5] is: dose: 50.0 mg/kg/injection, schedule: Q01DX009 (ip), vehicle: saline with Tween-80.
The mark [6] stands for this setting: dose: 100.0 mg/kg/injection, schedule: Q01DX009 (ip), vehicle: saline with Tween-80.
Setting [7] is: dose: 200.0 mg/kg/injection, schedule: Q01DX009 (ip), vehicle: saline with Tween-80.
[8] abbreviates: dose: 200.0 mg/kg/injection, schedule: Q01DX001 (ip), vehicle: Klucel (hydroxypropylcellulose) (HPC).
[9] abbreviates: dose: 50.0 mg/kg/injection, schedule: Q01DX005 (ip), vehicle: saline.
The mark [10] stands for this setting: dose: 100.0 mg/kg/injection, schedule: Q01DX005 (ip), vehicle: saline.
The mark [11] stands for this setting: dose: 200.0 mg/kg/injection, schedule: Q01DX005 (ip), vehicle: saline.

Turning to `N#CC(C#N)=C(C#N)Nc1ccc(F)cc1`, the T/C reads like this: (dose: 30.0 mg/kg/injection, schedule: Q01DX005 (ip), vehicle: Klucel (hydroxypropylcellulose) (HPC)) 91 % of control; under setting [1], 90 % of control.
With `OC(/C=C\CC(O)(C(F)(F)F)C(F)(F)F)(C(F)(F)F)C(F)(F)F`, the T/C by setting is: (dose: 3.12 mg/kg/injection, schedule: Q01DX009 (ip), vehicle: saline) 100 % of control; (dose: 6.25 mg/kg/injection, schedule: Q01DX009 (ip), vehicle: saline) 106 % of control; (dose: 12.5 mg/kg/injection, schedule: Q01DX009 (ip), vehicle: saline with Tween-80) 91 % of control; (dose: 12.5 mg/kg/injection, schedule: Q01DX009 (ip), vehicle: saline) 93 % of control.
As to `CN(C)CCNC(=O)c1ccc(C(=O)NCCN(C)C)c2c(C(=O)NCCN(C)C)ccc(C(=O)NCCN(C)C)c12`, the T/C by setting is: (dose: 1.56 mg/kg/injection, schedule: Q01DX005 (ip), vehicle: saline with Tween-80) 100 % of control; (dose: 3.13 mg/kg/injection, schedule: Q01DX005 (ip), vehicle: saline with Tween-80) 106 % of control; (dose: 6.25 mg/kg/injection, schedule: Q01DX005 (ip), vehicle: saline with Tween-80) 102 % of control and 109 % of control; (dose: 12.5 mg/kg/injection, schedule: Q01DX005 (ip), vehicle: saline with Tween-80) 108 % of control.
For `C=CCN(CCNc1cccc2ccccc12)C1CCCCC1`, the T/C by setting is: under setting [2], 92 % of control; under setting [3], 100 % of control; under setting [4], 104 % of control.
On to `COc1cccc2c1C(=O)c1c(O)c3c(c(O)c1C2=O)C[C@@](O)(CCO)C[C@@H]3OC1CC(N)C(O)C(C)O1` (stereo not given in full), for which the T/C was 151 % of control (dose: 0.39 mg/kg/injection, schedule: Q01DX009 (ip), vehicle: water); 158 % of control and 164 % of control (dose: 0.78 mg/kg/injection, schedule: Q01DX009 (ip), vehicle: water); 119 % of control (dose: 1.2 mg/kg/injection, schedule: Q04DX003 (ip), vehicle: water); 153 % of control and 158 % of control (dose: 1.56 mg/kg/injection, schedule: Q01DX009 (ip), vehicle: water); 106 % of control and 112 % of control (dose: 2.4 mg/kg/injection, schedule: Q04DX003 (ip), vehicle: water); 163 % of control and 164 % of control (dose: 3.13 mg/kg/injection, schedule: Q01DX009 (ip), vehicle: water). The T/C (dose: 4.7 mg/kg/injection, schedule: Q04DX003 (ip), vehicle: water) was 120 % of control; the T/C (dose: 6.25 mg/kg/injection, schedule: Q01DX009 (ip), vehicle: water) is 153 % of control; the T/C (dose: 9.4 mg/kg/injection, schedule: Q04DX003 (ip), vehicle: water) is 154 % of control; the T/C (dose: 18.8 mg/kg/injection, schedule: Q04DX003 (ip), vehicle: water) is 158 % of control; the T/C (dose: 75.0 mg/kg/injection, schedule: Q04DX003 (ip), vehicle: water) is 97 % of control.
On to `COc1nc(N)c([N+](=O)[O-])c(C(Br)Br)n1`, for which the T/C reads like this: (dose: 6.25 mg/kg/injection, schedule: Q01DX005 (ip), vehicle: Klucel (hydroxypropylcellulose) (HPC)) 104 % of control; (dose: 12.5 mg/kg/injection, schedule: Q01DX005 (ip), vehicle: Klucel (hydroxypropylcellulose) (HPC)) 100 % of control; (dose: 25.0 mg/kg/injection, schedule: Q01DX005 (ip), vehicle: Klucel (hydroxypropylcellulose) (HPC)) 91 % of control.
Take `O=c1[nH]cnc2cc3cn[nH]c3cc12`: the T/C reads like this: (dose: 50.0 mg/kg/injection, schedule: Q01DX005 (ip), vehicle: saline with Tween-80) 91 % of control; (dose: 100.0 mg/kg/injection, schedule: Q01DX005 (ip), vehicle: saline with Tween-80) 96 % of control; (dose: 200.0 mg/kg/injection, schedule: Q01DX005 (ip), vehicle: saline with Tween-80) 95 % of control.
As for `CCOC(=O)c1cc([N+](=O)[O-])c(C)n1C`, the T/C reads like this: under setting [5], 98 % of control; under setting [6], 102 % of control; under setting [7], 96 % of control.
With `O=C(CC1=NC2NN(c3ccccc3)C(=O)C2=C1CC(=O)C(c1ccccc1)c1ccccc1)C(c1ccccc1)c1ccccc1` (stereo not given), the T/C (dose: 60.0 mg/kg/injection, schedule: Q01DX005 (ip), vehicle: suspension in saline) is 98 % of control; the T/C (dose: 120.0 mg/kg/injection, schedule: Q01DX005 (ip), vehicle: suspension in saline) was 102 % of control; the T/C (dose: 240.0 mg/kg/injection, schedule: Q01DX005 (ip), vehicle: suspension in saline) was 100 % of control.
In the case of `Cc1c2cnccc2c(C)c2c1c1ccccc1n2Cc1ccccc1`, the T/C by setting is: (dose: 6.25 mg/kg/injection, schedule: Q04DX003 (ip), vehicle: distilled water + Tween-80) 97 % of control; (dose: 12.5 mg/kg/injection, schedule: Q04DX003 (ip), vehicle: distilled water + Tween-80) 95 % of control; (dose: 25.0 mg/kg/injection, schedule: Q04DX003 (ip), vehicle: distilled water + Tween-80) 95 % of control; (dose: 50.0 mg/kg/injection, schedule: Q04DX003 (ip), vehicle: distilled water + Tween-80) 95 % of control; (dose: 100.0 mg/kg/injection, schedule: Q04DX003 (ip), vehicle: distilled water + Tween-80) 99 % of control; (dose: 200.0 mg/kg/injection, schedule: Q04DX003 (ip), vehicle: distilled water + Tween-80) 94 % of control.
In the case of `N#CC1CCCC(c2ccccc2)(C2CCCCC2)C1=O` (stereo not given), the T/C by setting is: (dose: 100.0 mg/kg/injection, schedule: Q01DX001 (ip), vehicle: Klucel (hydroxypropylcellulose) (HPC)) 99 % of control; under setting [8], 97 % of control; (dose: 400.0 mg/kg/injection, schedule: Q01DX001 (ip), vehicle: Klucel (hydroxypropylcellulose) (HPC)) 103 % of control.
With `COC1/C=C/OC2(C)Oc3c(C)c(O)c4c(O)c(c(/C=N/N(C)c5ncnc6c5ncn6C5OC(CO)C(O)C5O)c(O)c4c3C2=O)NC(=O)C(C)=C/C=C/C(C)C(O)C(C)C(O)C(C)C(OC(C)=O)C1C` (stereo not given), the T/C is 100 % of control under setting [5], 102 % of control under setting [6] and 102 % of control under setting [7].
For the compound `O=C(O)/C(Cl)=C(/Cl)C(=O)C(Cl)(Cl)Cl`, the T/C was 108 % of control (dose: 3.13 mg/kg/injection, schedule: Q01DX009 (ip), vehicle: distilled water + Tween-80); 155 % of control (dose: 25.0 mg/kg/injection, schedule: Q01DX009 (ip), vehicle: distilled water + Tween-80); 155 % of control (dose: 50.0 mg/kg/injection, schedule: Q01DX009 (ip), vehicle: distilled water + Tween-80).
On to `Cc1cccc(Cl)c1NC(=O)CSCCN(C)C`, for which the T/C was 106 % of control under setting [1] and 103 % of control (dose: 120.0 mg/kg/injection, schedule: Q01DX005 (ip), vehicle: Klucel (hydroxypropylcellulose) (HPC)).
`COC(OC)(OC)OC`: the T/C runs as follows: under setting [9], 104 % of control; under setting [10], 108 % of control; under setting [11], 109 % of control.
For the compound `CC/C(=C(/CC)c1ccc(OCC(=O)N/N=C2\CCC3C4CCc5cc(O)ccc5C4CCC23C)cc1)c1ccc(OCC(=O)N/N=C2/CCC3C4CCc5cc(O)ccc5C4CCC23C)cc1` (stereo not given), the T/C by setting is: (dose: 3.12 mg/kg/injection, schedule: Q01DX001 (ip), vehicle: Klucel (hydroxypropylcellulose) (HPC)) 100 % of control; (dose: 6.25 mg/kg/injection, schedule: Q01DX001 (ip), vehicle: Klucel (hydroxypropylcellulose) (HPC)) 102 % of control; (dose: 12.5 mg/kg/injection, schedule: Q01DX001 (ip), vehicle: Klucel (hydroxypropylcellulose) (HPC)) 97 % of control; (dose: 50.0 mg/kg/injection, schedule: Q01DX001 (ip), vehicle: Klucel (hydroxypropylcellulose) (HPC)) 91 % of control; under setting [8], 87 % of control.
With `CCN(CC)CCNC`, the T/C under setting [9] was 99 % of control, the T/C under setting [10] was 95 % of control and the T/C under setting [11] was 98 % of control.
For the compound `CC(O)c1cc(=O)[nH][nH]1` (stereo not given), the T/C was 105 % of control under setting [9], 99 % of control under setting [10] and 110 % of control under setting [11].
For `C/C(=N\N=C\N(C)S(=O)(=O)c1ccc(C)cc1)c1ccccc1`, the T/C under setting [2] was 104 % of control, the T/C under setting [3] is 98 % of control and the T/C under setting [4] was 95 % of control.
